Holding throughout (assay type): cell-based, Mycobacterium tuberculosis
Test [1] deals with M. tuberculosis. The experiment in a line: MIC in modified 7H10 broth against M. tuberculosis (Table 3). More on the design: MIC, M. tuberculosis ATCC 35828: unit not given beside the values. Conditions: ATCC 35828 (PZA resistant), pH 5.8.
Test [2] relates to M. tuberculosis. Also on record: unit not given beside the values. As to conditions: for MIC, M. tuberculosis ATCC 27294: ATCC 27294 = H37RV, strain susceptible to pyrazinamide; for MIC, M. tuberculosis ATCC 35822: ATCC 35822, isoniazid (INH)-resistant strain; for MIC, M. tuberculosis ATCC 35828: ATCC35828, PZA resistant strain; for MIC, M. tuberculosis MS 6210: MS6210, resistant clinical isolate.

Test [3] has as its system M. tuberculosis. As to the kind of experiment: microbe, parasite or virus in culture. More on the design: MIC, PZA-resistant strain at pH 6.0: unit not given beside the values. Conditions: for MIC, INH-resistant strain, pH 6.0 / MIC, PZA-resistant strain, pH 6.0 / MIC, INH-resistant strain, pH 6.8 / MIC, PZA-resistant strain, pH 6.8: 7H12 BACTEC broth.
The subject of test [4] is PZA-resistant Mtb in macrophages. Conditions: FIG. 1; in comparison with PZA or the control.
Test [5] relates to M. tuberculosis. The experiment in a line: Influence of pH on MICs (Table 5). Also on record: unit not given beside the values. Conditions: ATCC 35828 (PZA resistant).
Test [6] has as its system M. tuberculosis.

The structures appear in SMILES notation. Read-outs that look alike come from different tables or passages of the source.

Consider `NC(=O)c1cnc(Cl)cn1` [Compound 5-Chloro-PZA, 5-chloro-pyrazinamide, reference compound], for which, in the test with M. tuberculosis [1], the “MIC, M. tuberculosis ATCC 35828” value amounted to 8.
On to `CCCN(CCC)CNC(=O)c1cnccn1` [Compound 9, dipropylaminomethyl-amide], for which, in the test on M. tuberculosis [2], the “MIC, M. tuberculosis ATCC 27294” value worked out at 100; the “MIC, M. tuberculosis ATCC 35822” value came out at 100; the “MIC, M. tuberculosis ATCC 35828” value came out at 100; the “MIC, M. tuberculosis MS 6210” value was 100.
Consider `CCN(CC)CNC(=O)c1cnccn1` [Compound 2, pyrazine-2-carboxylic acid diethylaminomethyl-amide], for which, in the test with M. tuberculosis [3] (pH 6.0), the “MIC, INH-resistant strain, pH 6.0” value worked out at 100 g./ml and the “MIC, PZA-resistant strain, pH 6.0” value was 100 g./ml. For the same compound, in the test on M. tuberculosis [3], the “MIC, INH-resistant strain, pH 6.8” value turned out to be 100 g./ml and the “MIC, PZA-resistant strain, pH 6.8” value worked out at 100 g./ml. Also, in test [4], the “number of colony forming units (CFU) of M. tuberculosis from macrophages” value is “reduced the number of CFU”. In the test with M. tuberculosis [5], the “MIC, ATCC 35828 pH 6.0” value was determined as 100 and the “MIC, ATCC 35828 pH 6.8” value amounted to 100. Besides, the “MIC, M. tuberculosis ATCC 35828” value in the test with M. tuberculosis [1] is listed as 1.
On to `CN(CNC(=O)c1cnccn1)Cc1ccccc1` [Compound 8, [(benzyl-methyl-amino)-methyl]-amide], for which, in the test on M. tuberculosis [2], the “MIC, M. tuberculosis ATCC 27294” value is 100; the “MIC, M. tuberculosis ATCC 35822” value is 100; the “MIC, M. tuberculosis ATCC 35828” value amounted to 100; the “MIC, M. tuberculosis MS 6210” value stood at 33.
As to `CN1CCN(CNC(=O)c2cnccn2)CC1` [Compound 7, (piperazin-1-ylmethyl)-amide], in the test with M. tuberculosis [2], the “MIC, M. tuberculosis ATCC 27294” value stood at 300; the “MIC, M. tuberculosis ATCC 35822” value is recorded as 100; the “MIC, M. tuberculosis ATCC 35828” value turned out to be 300; the “MIC, M. tuberculosis MS 6210” value is given as 100.
Turning to `O=C(NCN1CCOCC1)c1cnccn1` [Compound 4, (morpholin-4-ylmethyl)-amide], the “MIC, M. tuberculosis ATCC 35828” value in the test with M. tuberculosis [1] turned out to be 16. For the same compound, in the test on M. tuberculosis [2], the “MIC, M. tuberculosis ATCC 27294” value is 100; the “MIC, M. tuberculosis ATCC 35822” value came out at 33; the “MIC, M. tuberculosis ATCC 35828” value came to 100; the “MIC, M. tuberculosis MS 6210” value was 100.
Consider `O=C(NCN1CCOCC1)c1cnccn1` [MZA, morphazinamide], for which, in the test on M. tuberculosis [3] (pH 6.0), the “MIC, INH-resistant strain, pH 6.0” value was 100 g./ml and the “MIC, PZA-resistant strain, pH 6.0” value is 100 g./ml. Also, in the test on M. tuberculosis [3], the “MIC, INH-resistant strain, pH 6.8” value was 100 g./ml and the “MIC, PZA-resistant strain, pH 6.8” value was 100 g./ml. Further, in the test on M. tuberculosis [3] (PZA-resistant strain), the “MIC, PZA-resistant strain, pH 5.5” value was found to be 100 g./ml. Also, the “activity at pH 6.8 compared with pH levels 5.5 and 6.0” value in the test with M. tuberculosis [6] (pH 6.8 v. 5.5 and 6.0) is “no different from or only slightly higher than at pH levels 5.5 and 6.0”. Besides, the “MICs against susceptible strains at pH 5.5 and 6.0 compared with PZA” value with M. tuberculosis [6] (susceptible strains, pH 5.5 and 6.0) is listed as “in the same range as those of PZA”. Further, in the test on M. tuberculosis [5], the “MIC, ATCC 35828 pH 6.0” value is reported as 100 and the “MIC, ATCC 35828 pH 6.8” value is 100.
Consider `NC(=O)c1cnccn1` [PZA, Pyrazinamide], for which, in the test with M. tuberculosis [3] (pH 6.0), the “MIC, INH-resistant strain, pH 6.0” value is given as 33 g./ml and the “MIC, PZA-resistant strain, pH 6.0” value is reported as >300 g./ml. Further, in the test on M. tuberculosis [3], the “MIC, INH-resistant strain, pH 6.8” value is recorded as >300 g./ml and the “MIC, PZA-resistant strain, pH 6.8” value was >300 g./ml. Besides, the “MIC, PZA-resistant strain, pH 5.5” value in the test on M. tuberculosis [3] (PZA-resistant strain) was > 300 g./ml. The “MIC, PZA-resistant strain at pH 6.0” value in the test on M. tuberculosis [3] (PZA-resistant strain, pH 6.0) is listed as > 300. In addition, the “activity against susceptible strains by pH” value with M. tuberculosis [6] (pH 5.5, 6.0, 6.8) was “active against susceptible strains at pH 5.5 and 6.0 only, and not at pH 6.8”. For the same compound, in the test with M. tuberculosis [5], the “MIC, ATCC 35828 pH 6.0” value is >300 and the “MIC, ATCC 35828 pH 6.8” value is recorded as >300. In addition, the “MIC, M. tuberculosis ATCC 35828” value in the test with M. tuberculosis [1] was 2048. Also, in the test on M. tuberculosis [2], the “MIC, M. tuberculosis ATCC 27294” value is listed as 33; the “MIC, M. tuberculosis ATCC 35822” value was 33; the “MIC, M. tuberculosis ATCC 35828” value is >300; the “MIC, M. tuberculosis MS 6210” value was 100.
With `CCN(CC)CNC(=O)c1cnc(N(CC)CC)cn1` [Compound 17, 5-diethylamino-pyrazinoic acid diethylaminomethyl-amide], the “MIC, M. tuberculosis ATCC 35828” value with M. tuberculosis [1] was 16.
On to `O=C(NCN1CCCC1)c1cnccn1` [Compound 1, pyrazine-2-carboxylic acid (pyrrolidin-1-ylmethyl)-amide], for which, in the test with M. tuberculosis [3] (pH 6.0), the “MIC, INH-resistant strain, pH 6.0” value amounted to 100 g./ml and the “MIC, PZA-resistant strain, pH 6.0” value turned out to be 100 g./ml. For the same compound, in the test on M. tuberculosis [3], the “MIC, INH-resistant strain, pH 6.8” value stood at 100 g./ml and the “MIC, PZA-resistant strain, pH 6.8” value was found to be 100 g./ml. For the same compound, in the test on M. tuberculosis [3] (PZA-resistant strain), the “MIC, PZA-resistant strain, pH 5.5” value was 100 g./ml. Also, in the test on M. tuberculosis [5], the “MIC, ATCC 35828 pH 6.0” value came to 100 and the “MIC, ATCC 35828 pH 6.8” value was 100. Further, the “MIC, M. tuberculosis ATCC 35828” value against M. tuberculosis [1] is recorded as 2.

(Values after US6399607B1, “Aminomethylene amide analogs of pyrazinamide with intracellular antimycobacterial activity against pyrazinamide-resistant mycobacteria combined with a rifamycin” (priority 1999, dated 2002).)
